Experimental data reported in patent publication US20050076398A1, “Animal model of chronic stress diseases and method for producing the same” (Ajinomoto Co., Inc., priority 2002, published 2005).

Test system: lysine deficient rats
Test: Effect of a medicine on abnormal bowel movement of lysine deficient rats (carmine dye feces count)
Type: in vivo, rats (male Wistar)
Conditions: oral administration with carmine dye; rats fed low lysine diet 7 days, fasted one day; Dunnett's method
From the text: The low lysine diet (n=10) or lysine-containing diet (normal diet; n=10) was given to rats (Charles River Japan, Inc, male Wistar rats, 5W). The rats fed for 7 days were used. Each rat was fasted one day before the start of the experiments (on the 6th day after beginning the feeding of the experimental diet) and then a medicine and carmine dye were orally administered. The number of the carmine colorant-containing feces was cumulatively counted sequentially. The statistical analysis was conducted according to Dunnett's method.

## Cc1[nH]cnc1CN1CCc2c(c3ccccc3n2C)C1=O [Alosetron]
  acceleration of the excretion of carmine-containing feces: significantly control the acceleration of the excretion of the feces
